Data on 24 compounds can be found in patent US20150315211A1, “SMALL MOLECULES FOR THE MODULATION OF MCL-1 AND METHODS OF MODULATING CELL DEATH, CELL DIVISION, CELL DIFFERENTIATION AND METHODS OF TREATING DISORDERS” (priority 2010, published 2015).

For test [1], the target named is MCL-1ΔNΔC (Homo sapiens, UniProt Q07820). The test can be described thus: High-throughput competitive FP binding screen, FITC-MCL-1 SAHB/MCL-1ΔNΔC interaction. Also on record: the C-terminal alpha-helix was deleted from each of these constructs; GST (N, cleaved yes); made in house. The note with it: FITC-MCL-1 SAHB/MCL-1ΔNΔC interaction pair, competitive FP screen.
MCL-1ΔNΔC (Homo sapiens, UniProt Q07820), sequence (Q07820 172-320 limits assumed, stated change not applied): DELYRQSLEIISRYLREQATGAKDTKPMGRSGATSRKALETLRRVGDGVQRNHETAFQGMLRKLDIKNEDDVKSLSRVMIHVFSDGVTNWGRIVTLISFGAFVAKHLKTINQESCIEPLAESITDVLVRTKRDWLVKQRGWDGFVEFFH

The target of another test is BCL-XLΔC (Homo sapiens, UniProt Q07817). The test can be described thus: High-throughput competitive FP binding screen, FITC-BAD BH3/BCL-XLΔC interaction. The following applies: FITC-BAD BH3/BCL-XLΔC interaction pair, competitive FP screen.
BCL-XLΔC, sequence (Q07817 1-212 limits assumed, stated change not applied): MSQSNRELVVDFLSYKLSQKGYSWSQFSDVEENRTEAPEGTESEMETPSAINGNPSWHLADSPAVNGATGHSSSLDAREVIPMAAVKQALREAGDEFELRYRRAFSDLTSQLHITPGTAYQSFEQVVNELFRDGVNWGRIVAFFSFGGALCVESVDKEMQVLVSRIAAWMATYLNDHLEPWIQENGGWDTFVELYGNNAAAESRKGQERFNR
For test [2], the system named is MCL-1ΔNΔC. The test is described as follows: High-throughput competitive FP binding screen, FITC-MCL-1 SAHB/MCL-1ΔNΔC interaction. The note with it: selectivity for MCL-1ΔNΔC over BCL-XLΔC targeting (BCL-XL % Bound minus MCL-1 % Bound).

With `Cc1cc(C)c2nc(N3CCCN(C(=O)c4ccco4)CC3)c(C#N)cc2c1`, on MCL-1ΔNΔC [1], the “MCL-1% Bound” value is 11.4%. Also, the “BCL-XL % Bound” value at BCL-XLΔC was found to be 92.2%. In the test on MCL-1ΔNΔC [2], the “Spec Values” was 80.8.

Regarding `Cc1ccc(C)n1-c1cc(Cl)ccc1C(=O)O`, on MCL-1ΔNΔC [1], the “MCL-1% Bound” value was −3.914%. Moreover, the “BCL-XL % Bound” value at BCL-XLΔC worked out at 75.93%. In addition, the “Spec Values” in the test with MCL-1ΔNΔC [2] is 79.84.

On to `O=C(OCc1ccc(F)cc1)c1cc(-c2ccco2)nc2ccccc12`, for which the “MCL-1% Bound” value on MCL-1ΔNΔC [1] amounted to 21.94%. Moreover, the “BCL-XL % Bound” value at BCL-XLΔC is on record as 101.6%. For the same compound, the “Spec Values” in the test with MCL-1ΔNΔC [2] is recorded as 79.65.

`Cc1ccc(NC(=S)Nc2ccc3nc(-c4ccco4)c(-c4ccco4)nc3c2)cc1`: the “MCL-1% Bound” value at MCL-1ΔNΔC [1] was −2.047%. Also, the “BCL-XL % Bound” value at BCL-XLΔC turned out to be 75.97%. In the test with MCL-1ΔNΔC [2], the “Spec Values” is 78.01.

As to `Oc1ccc2cc3c4cc(Br)ccc4nc-3oc2c1O`, the “MCL-1% Bound” value at MCL-1ΔNΔC [1] is 13.37%. Moreover, the “BCL-XL % Bound” value on BCL-XLΔC stood at 90.07%. Further, in the test on MCL-1ΔNΔC [2], the “Spec Values” was 76.69.

`O=C1/C(=C\C=C\c2ccco2)SC(=S)N1NCc1ccccc1O`: the “MCL-1% Bound” value on MCL-1ΔNΔC [1] was 19.8%. At BCL-XLΔC, the “BCL-XL % Bound” value worked out at 95.8%. In addition, in the test on MCL-1ΔNΔC [2], the “Spec Values” came to 76.1.

For the compound `COC(=O)/C=C1/OC(c2ccc(Cl)cc2)=CC1=O`, the “MCL-1% Bound” value on MCL-1ΔNΔC [1] was determined as 21.79%. For the same compound, at BCL-XLΔC, the “BCL-XL % Bound” value was determined as 97.17%. The “Spec Values” in the test on MCL-1ΔNΔC [2] came to 75.38.

For the compound `O=C1CSCC(=O)N1c1csc(C(F)(F)F)c1-c1ccccc1`, the “MCL-1% Bound” value at MCL-1ΔNΔC [1] is recorded as 21.55%. Moreover, the “BCL-XL % Bound” value at BCL-XLΔC worked out at 96.35%. Besides, the “Spec Values” with MCL-1ΔNΔC [2] was 74.8.

In the case of `[Na+].[Na+].[O-]c1c(Cl)cc(Cl)cc1Sc1cc(Cl)cc(Cl)c1[O-]`, at MCL-1ΔNΔC [1], the “MCL-1% Bound” value is 27.2%. In addition, on BCL-XLΔC, the “BCL-XL % Bound” value worked out at 100.4%. Moreover, the “Spec Values” in the test with MCL-1ΔNΔC [2] is 73.22.

As for `CN1c2ccccc2C(C)(C)C12C=Cc1cc(O)ccc1O2` (stereo not drawn), on MCL-1ΔNΔC [1], the “MCL-1% Bound” value turned out to be 37.92%. The “BCL-XL % Bound” value at BCL-XLΔC turned out to be 111%. The “Spec Values” with MCL-1ΔNΔC [2] is 73.1.

Take `COC(=O)c1cc(OC(=O)c2ccccc2Br)n(C)n1`: the “MCL-1% Bound” value at MCL-1ΔNΔC [1] is given as 30.23%. In addition, at BCL-XLΔC, the “BCL-XL % Bound” value is on record as 103.1%. Moreover, the “Spec Values” with MCL-1ΔNΔC [2] came to 72.92.

With `O=c1oc2ccccc2c2oc3cc(O)c(O)cc3c12`, the “MCL-1% Bound” value at MCL-1ΔNΔC [1] is recorded as 12.59%. Also, at BCL-XLΔC, the “BCL-XL % Bound” value was found to be 84.9%. Further, the “Spec Values” with MCL-1ΔNΔC [2] is listed as 72.31.

On to `Oc1cccnc1NC(c1ccc(F)cc1)c1ccc2cccnc2c1O` (stereo not drawn), for which the “MCL-1% Bound” value at MCL-1ΔNΔC [1] amounted to 42.49%. Moreover, at BCL-XLΔC, the “BCL-XL % Bound” value is 113.7%. In addition, the “Spec Values” in the test on MCL-1ΔNΔC [2] worked out at 71.24.

In the case of `Cc1cc2c(n1-c1ccc(C(=O)O)cc1)CCCC2`, at MCL-1ΔNΔC [1], the “MCL-1% Bound” value is −5.85%. Moreover, the “BCL-XL % Bound” value on BCL-XLΔC is given as 65.33%. Besides, in the test on MCL-1ΔNΔC [2], the “Spec Values” was found to be 71.18.

Turning to `COc1ccc(C(=O)c2sc3cc(-c4ccco4)cc(C(F)(F)F)c3c2N)cc1OC`, on MCL-1ΔNΔC [1], the “MCL-1% Bound” value is given as 14.29%. Also, on BCL-XLΔC, the “BCL-XL % Bound” value stood at 85.27%. Besides, the “Spec Values” with MCL-1ΔNΔC [2] came to 70.97.

For `Cc1occc1-c1nnc2sc(Cc3cccc4ccccc34)nn12`, the “MCL-1% Bound” value on MCL-1ΔNΔC [1] is on record as 58.7%. Besides, the “BCL-XL % Bound” value at BCL-XLΔC is reported as 129.5%. For the same compound, the “Spec Values” in the test on MCL-1ΔNΔC [2] is 70.8.

As to `O=C(Nc1ccccc1)C(C(F)(F)F)C(F)(F)F`, the “MCL-1% Bound” value on MCL-1ΔNΔC [1] stood at 11.98%. Further, on BCL-XLΔC, the “BCL-XL % Bound” value is on record as 82.61%. Besides, the “Spec Values” with MCL-1ΔNΔC [2] turned out to be 70.63.

As for `CC1CCN(C2=NN3C(=N)/C(=C\c4ccc(SCc5ccco5)o4)C(=O)N=C3S2)CC1`, on MCL-1ΔNΔC [1], the “MCL-1% Bound” value is listed as 14.3%. For the same compound, at BCL-XLΔC, the “BCL-XL % Bound” value is listed as 84.68%. The “Spec Values” with MCL-1ΔNΔC [2] came to 70.38.

For the compound `CCCCn1nnnc1COC(=O)/C(C#N)=C/c1ccc(N(C)C)cc1`, at MCL-1ΔNΔC [1], the “MCL-1% Bound” value was −7.306%. In addition, at BCL-XLΔC, the “BCL-XL % Bound” value is reported as 62.97%. In the test on MCL-1ΔNΔC [2], the “Spec Values” amounted to 70.27.

With `O=C1NC(=O)/C(=C/c2ccc(-c3ccc(S(=O)(=O)N4CCOCC4)cc3)o2)S1`, the “MCL-1% Bound” value on MCL-1ΔNΔC [1] is given as 38.57%. Besides, the “BCL-XL % Bound” value on BCL-XLΔC came out at 107.9%. For the same compound, the “Spec Values” in the test with MCL-1ΔNΔC [2] amounted to 69.33.

As for `Cc1ccc2[nH]c3nc(=S)[nH]nc3c2c1`, the “MCL-1% Bound” value at MCL-1ΔNΔC [1] turned out to be 38.65%. The “BCL-XL % Bound” value at BCL-XLΔC is 107.9%. In addition, in the test with MCL-1ΔNΔC [2], the “Spec Values” amounted to 69.2.

`CCOC(=O)c1cc(C#N)c(SCC(=O)c2cc3ccccc3oc2=O)[nH]c1=O`: the “MCL-1% Bound” value on MCL-1ΔNΔC [1] worked out at 31.28%. For the same compound, the “BCL-XL % Bound” value on BCL-XLΔC is 100.2%. Moreover, the “Spec Values” in the test on MCL-1ΔNΔC [2] stood at 68.9.

As to `N#CC1=C(c2ccc(Cl)cc2)C2CSc3ccccc3C2NC1=O` (stereo not drawn), the “MCL-1% Bound” value at MCL-1ΔNΔC [1] is 19.37%. On BCL-XLΔC, the “BCL-XL % Bound” value was found to be 87.67%. In addition, the “Spec Values” with MCL-1ΔNΔC [2] turned out to be 68.29.

With `Cc1ccc2c(c1C)NC(C(=O)O)C1CC=CC21` (stereo not drawn), the “MCL-1% Bound” value on MCL-1ΔNΔC [1] is listed as 14.6%. Also, the “BCL-XL % Bound” value at BCL-XLΔC is on record as 82.8%. In addition, in the test with MCL-1ΔNΔC [2], the “Spec Values” was determined as 68.3.
